Drawing on the Kinase Knowledgebase extract (Sharma et al. 2016), this text covers IC50 for 42 molecules.

Structures are written as SMILES. Where “and” joins values, the source holds several entries; their conditions need not be identical. Equal values may be shown once.

This test deals with PIK3CA (human) (UniProt P42336). Nature of the test: Enzyme Assay.
PIK3CA (human), sequence (P42336 whole entry, looked up): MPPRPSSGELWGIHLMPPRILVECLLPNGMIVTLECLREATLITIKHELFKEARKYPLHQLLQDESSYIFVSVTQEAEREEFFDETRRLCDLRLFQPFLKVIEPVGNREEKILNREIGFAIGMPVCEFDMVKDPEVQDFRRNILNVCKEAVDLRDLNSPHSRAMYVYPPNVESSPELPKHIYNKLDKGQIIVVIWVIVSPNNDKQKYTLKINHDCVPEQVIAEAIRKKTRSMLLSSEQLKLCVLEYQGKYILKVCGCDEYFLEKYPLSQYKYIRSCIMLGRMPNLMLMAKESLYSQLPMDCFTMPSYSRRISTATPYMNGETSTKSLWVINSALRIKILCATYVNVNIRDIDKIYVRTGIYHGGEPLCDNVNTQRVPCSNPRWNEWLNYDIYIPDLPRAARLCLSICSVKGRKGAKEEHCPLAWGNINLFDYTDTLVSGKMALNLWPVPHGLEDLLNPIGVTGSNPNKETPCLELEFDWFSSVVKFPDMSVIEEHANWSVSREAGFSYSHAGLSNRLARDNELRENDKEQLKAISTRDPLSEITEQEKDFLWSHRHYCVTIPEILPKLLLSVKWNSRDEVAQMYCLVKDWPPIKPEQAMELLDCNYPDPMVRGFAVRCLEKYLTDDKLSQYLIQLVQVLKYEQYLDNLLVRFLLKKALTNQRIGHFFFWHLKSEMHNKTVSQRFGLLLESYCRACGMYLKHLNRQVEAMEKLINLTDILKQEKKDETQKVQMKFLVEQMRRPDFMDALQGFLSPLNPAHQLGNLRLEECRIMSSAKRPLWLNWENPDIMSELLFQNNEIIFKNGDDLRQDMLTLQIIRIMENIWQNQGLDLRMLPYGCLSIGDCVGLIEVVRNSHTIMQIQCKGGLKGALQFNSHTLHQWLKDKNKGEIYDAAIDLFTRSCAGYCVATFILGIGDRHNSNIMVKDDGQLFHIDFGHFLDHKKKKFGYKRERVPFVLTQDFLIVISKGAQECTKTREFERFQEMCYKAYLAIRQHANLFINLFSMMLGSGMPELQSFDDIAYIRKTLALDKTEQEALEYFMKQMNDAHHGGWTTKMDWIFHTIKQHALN
As a reminder, the IC50 is the concentration needed to halve the response being measured. Low readings indicate inhibition by little substance, high ones a need for much substance. On to `CCc1ncnc(-c2ccc(C(=O)N3CCC(N4CCN(C)CC4)CC3)c(C)c2)c1C#Cc1ccc(N)nc1`, for which the IC50 came to 307 nM. Regarding `CCc1ncnc(-c2ccc(C(=O)N3CCC(OC)CC3)c(Cl)c2)c1C#Cc1ccc(N)nc1`, the IC50 came to 93.5 nM. In turn, `CCc1ncnc(-c2ccc(C(=O)N(C)CCN3CCCC3=O)c(C)c2)c1C#Cc1ccc(N)nc1` displayed an IC50 of 31.8 nM. Molecule `CCc1ncnc(-c2ccc(C(=O)N3CCC(N4CCC(C)CC4)C3)c(C)c2)c1C#Cc1ccc(N)nc1` (configuration not stated) registered an IC50 of 200 nM. In turn, `CCc1ncnc(-c2ccc(C(=O)N3CCNCC3)c(Cl)c2)c1C#Cc1ccc(N)nc1` displayed an IC50 of 164 nM. `CCc1ncnc(-c2ccc(C(=O)N3CCCOCC3)c(Cl)c2)c1C#Cc1ccc(N)nc1` gave an IC50 of 65.3 nM. This IC50 lies about 2.5-fold lower than the previous one. As for `CCc1ncnc(-c2cc(F)c(C(=O)N3CCC4(CC3)CC(=O)CO4)c(F)c2)c1C#Cc1ccc(N)nc1`, the figure is 144 nM; as for `CCc1ncnc(-c2ccc(C(=O)NC3CC(N4CCC(O)CC4)C3)c(F)c2)c1C#Cc1ccc(N)nc1` (configuration not stated), 351 nM. Regarding `CCc1ncnc(-c2ccc(C(=O)N3CCN(CCN(C)C)CC3)c(Cl)c2)c1C#Cc1ccc(N)nc1`, the IC50 is 370 nM. As for `CCNc1ccc(C#Cc2c(CC)ncnc2-c2ccc(C(=O)N3CCN(C4CCC4)CC3)c(F)c2)cn1`, the IC50 is 206 nM. As for `CCc1ncnc(-c2ccc(C(=O)N(C)O)c(Cl)c2)c1C#Cc1ccc(N)nc1`, the figure is 67.4 nM; as for `CCc1ncnc(-c2ccc(C(=O)N3CCN(c4ccncc4)CC3)c(Cl)c2)c1C#Cc1ccc(N)nc1`, 209 nM. As for `CCc1ncnc(-c2ccc(C(=O)N3CCOC(C)(C)C3)c(F)c2)c1C#Cc1ccc(N)nc1`, the figure is 108 nM; as for `CCc1ncnc(-c2ccc(C(=O)N3CC[C@@H](O)C3)c(Cl)c2)c1C#Cc1ccc(N)nc1`, 65.6 nM; as for `CCc1ncnc(-c2ccc(C(=O)N3C[C@H]4C[C@@H]3CN4C)c(F)c2)c1C#Cc1ccc(N)nc1`, 333 nM. The molecule `CCc1ncnc(-c2ccc(C(=O)N3CCN(C(C)C)CC3)c(Cl)c2)c1C#Cc1ccc(N)nc1` had a half-inhibitory concentration (IC50) of 246 nM. Molecule `CCc1ncnc(-c2ccc(C(=O)N3CCC(C)(O)CC3)c(F)c2)c1C#Cc1ccc(N)nc1` returned an IC50 of 110 nM. Compared with the last molecule, the IC50 is about 2.2-fold lower. `CCc1ncnc(-c2ccc(C(=O)N3CC[C@@H](N(C)C)C3)c(OC)c2)c1C#Cc1ccc(N)nc1` yielded an IC50 of 357 nM. This IC50 lies about 3.2-fold higher than the previous one. `CCc1ncnc(-c2ccc(C(=O)N3CCN(S(=O)(=O)CC)CC3)c(C)c2)c1C#Cc1ccc(N)nc1` returned an IC50 of 36.8 nM. Consider `Cc1ncnc(-c2ccc(Cl)c(C(=O)N3CCCCC3)c2)c1C#Cc1ccc(N)nc1`, for which the IC50 amounted to 309 nM. On to `CCc1ncnc(-c2ccc(C(=O)N3CCC(C(C)(C)O)CC3)c(Cl)c2)c1C#Cc1ccc(N)nc1`, for which the IC50 turned out to be 101 nM. Turning to `CCc1ncnc(-c2ccc(C(=O)N3CCN(C4CCCC4)CC3)c(C)c2)c1C#Cc1ccc(N)nc1`, the IC50 turned out to be 90.7 nM. This IC50 and that of the molecule before are within 1.5-fold of each other.

In turn, `CCc1ncnc(-c2ccc(C(=O)N3CCC(C)(O)CC3)c(Cl)c2)c1C#Cc1ccc(N)nc1` showed an IC50 of 77 nM. `CCc1ncnc(-c2ccc(C(=O)N3CCC(C(F)(F)F)CC3)c(Cl)c2)c1C#Cc1ccc(N)nc1`: the IC50 came out at 499 nM. The molecule `CCc1ncnc(-c2ccc(C(=O)N3CC(O)CO3)c(F)c2)c1C#Cc1ccc(N)nc1` (configuration not stated) showed an IC50 of 64 nM.

For `CCc1ncnc(-c2ccc(C(=O)N3CC[C@H](O)C3)c(Cl)c2)c1C#Cc1ccc(N)nc1`, the IC50 amounted to 58 nM. This IC50 and that of the molecule before are within 1.5-fold of each other.

In the case of `CCc1ncnc(-c2ccc(C(=O)N3CCC(OC)CC3)c(F)c2)c1C#Cc1ccc(N)nc1`, the IC50 was determined as 82 nM. In turn, `CCc1ncnc(-c2ccc(C(=O)N3CCCC(O)C3)c(Cl)c2)c1C#Cc1ccc(N)nc1` (configuration not stated) showed an IC50 of 65 nM. Take `CCc1ncnc(-c2ccc(C(=O)N3CCC(C4CCN(C)CC4)CC3)c(Cl)c2)c1C#Cc1ccc(N)nc1`: the IC50 stood at 374 nM. Take `CCc1ncnc(-c2ccc(C(=O)N3CC[S+]([O-])CC3)c(Cl)c2)c1C#Cc1ccc(N)nc1`: the half-maximal inhibitory concentration (IC50) was 63.6 nM and 64 nM. With `CCc1ncnc(-c2ccc(C(=O)N3CCN4CCCCC4C3)c(C)c2)c1C#Cc1ccc(N)nc1` (configuration not stated) the figure was 115 nM; with `CCc1ncnc(-c2ccc(C(=O)N3CCC[C@H]3CO)c(F)c2)c1C#Cc1ccc(N)nc1`, 136 nM. As for `CCc1ncnc(-c2ccc(Cl)c(C(=O)N(C)C)c2)c1C#Cc1ccc(N)nc1`, the IC50 worked out at 194 nM. Molecule `CCc1ncnc(-c2ccc(C(=O)N3CCCC(N(C)C)C3)c(C)c2)c1C#Cc1ccc(N)nc1` (configuration not stated) displayed an IC50 of 173 nM. In turn, `CCc1ncnc(-c2ccc(C(=O)N3CCC(OC)CC3)c(C)c2)c1C#Cc1ccc(N)nc1` returned an IC50 of 67.8 nM. This IC50 lies about 2.6-fold lower than the previous one. `CCc1ncnc(-c2ccc(C(=O)N3CCC(O)CC3)c(Cl)c2)c1C#Cc1ccc(N)nc1` displayed an IC50 of 52.9 nM. As for `CCc1ncnc(-c2ccc(C(=O)N3CCN(CC4CC4)CC3)c(Cl)c2)c1C#Cc1ccc(N)nc1`, the figure is 228 nM; as for `CCc1ncnc(-c2ccc(C(=O)N3CC[S+]([O-])CC3)c(F)c2)c1C#Cc1ccc(N)nc1`, 46 nM. Consider `CCc1ncnc(-c2ccc(C(=O)NC3CCCN(C)C3)c(Cl)c2)c1C#Cc1ccc(N)nc1` (configuration not stated), for which the IC50 is 510 nM. Molecule `CCc1ncnc(-c2ccc(C(=O)N3CCCN(C)CC3)c(Cl)c2)c1C#Cc1ccc(N)nc1` registered an IC50 of 405 nM. The IC50 values of the last two molecules are within 1.5-fold of each other. As to `CCc1ncnc(-c2ccc(C(=O)N(C)C)c(F)c2)c1C#Cc1ccc(C)nc1`, the IC50 amounted to 222 nM. Against the preceding molecule, the IC50 is about 1.8-fold lower. As to `CCc1ncnc(-c2ccc(C(=O)N3CCC(N(C)C)CC3)c(C)c2)c1C#Cc1ccc(N)nc1`, the IC50 was 232 nM.
